# Results: patent US6916845B2, “Method for prevention and treatment of male and female sexual dysfunction” (priority 1999, dated 2005)
# Assays:
# [1] = tested on: rabbit's CC smooth muscle; assay: Relaxation of PHE pre-contracted corpus cavernosum smooth muscle strips in organ chamber; type: cell-based; details: for effect of pre-treatment on the relaxation effects of icariin: pre-treatment before icariin
# Experimental: Sixty adults male New Zealand white rabbits(Weight: 2.5-3.0 kg) were used. Rabbits were anesthesia with sodium pentobarbital(50 mg/kg), penis was removed and corpus cavernous tissue were carefully isolated and made into 2×2×6 mm muscle strips for isometric tension was measured in organ chamber in vitro study with polygraph(MP 100 WS:Biopac systems, USA). CC muscle strip was fixed in 10 ml organ chamber containing Tyrode solution and continuously supplied with mixed gas(95% O2 and 5% CO2) and keep temperature at 37° C. The initial resting tensions of muscle strips were set at 2 g and tissue was allowed to equilibrate for 1.5-3.0 hours. Sub-maximal contractile responses to phenylepherine(PHE 5×10^-6 M) were observed and optimal isometric tension was determined. To evaluate the relaxation effects of icariin (the other components magnoflorine, querectin, epimedin A, B and C as the controls) on CC muscle strips, investigated the relaxation effects of different dosage of icariin on muscle strips pre-contracted by PHE. And to investigate the pharmaceutical action mechanism, the effects of […] Nω-nitric-L-arginine(L-NNA), guanylate cyclase antagonist methylene blue and pyrogallol, soluble guanylate cyclase inhibitor 1H-[1,2,4]oxadiazolo[4,3,-a]quinoxalin-1-one (ODQ) on the relaxation effects of icariin on CC.
# [2] = tested on: adult male rat; assay: Intracavernosal press (ICP) changes after intracavernosal administration and cavernous nerve electrical stimulation; type: in vivo; details: for Inhibiting Effect on Icariin induced Relaxation of CC. (ICP changes): 10 minutes after Icariin 100 μl 10^−4M
# Experimental: Twenty-four male, adult Wistar rats(weight:300-350 g) were used. After anesthetization, the left carotid artery was cannulated to monitor mean arterial pressure (MAP). Bipolar electrodes were positioned on the cavernous nerve (CN); the right cavernous body was cannulated with 26 G needle connected with Biopack MP100 to monitor ICP changes. After intracavemosal administration of 100 μl different concentration Icariin or Reserpine (10^−8M to 10^−4M) respectively, the CN was electrically stimulated (ES) 10 minutes later and ICP and MAP were monitored. In order to investigate the possible mechanism of the effect of icariin on ICP changes, 100 μl different concentration guanylate cyclase inhibitor ODQ (10^−8M-10^−4M) were intracavemosal administrated 10 minutes after Icariin (100 μl 10^−4M) administration into CC, and then the ICP was measured during erection, which was, followed the ES.
# [3] = tested on: cGMP formation in rabbit corpus cavernosum; assay: cGMP formation in corpus cavernosum of penis stimulated with SNP, radioimmunoassay; type: cell-based; details: in the presence of SNP
# [4] = tested on: patients; details: patients on antihypertensive agent; cited from earlier work
# [5] = tested on: PDE4 isolated from human liver tissue; assay: Inhibition of cAMP specific PDE4, two-step radioisotope procedure; type: biochemical
# Experimental: PDE5 and PDE4 were isolated from human platelets and liver tissue using a Pharmacia FPLC system and Mono Q column. The cyclic nucleotide PDE5/PDE4 activities in FPLC fractions were determined using a modification of the two-step radioisotope procedure ([^3H]GMP/[^3H]AMP).
# [6] = tested on: cGMP formation in clitoris CC of female rabbits; assay: cGMP formation in CC of clitoris stimulated with SNP, radioimmunoassay; type: cell-based, rabbit
smiles,measurement,setting,value
"NC(=NCCC[C@H](N)C(=O)O)N[N+](=O)[O-] [L-NNA, Nω-nitric-L-arginine]",icariin induced relaxation of CC smooth muscle strips after pre-treatment with the named inhibitor,[1]; icariin 10^−4M,15.68 ± 1.15%
same,icariin induced relaxation of CC smooth muscle strips after pre-treatment with the named inhibitor,[1]; icariin 10^−5M,3.23 ± 0.89%
same,icariin induced relaxation of CC smooth muscle strips after pre-treatment with the named inhibitor,[1]; icariin 10^−6M,0.82 ± 0.58%
same,effect of pre-treatment on the relaxation effects of icariin,[1],significantly inhibited
"CN(C)c1ccc2nc3ccc(=[N+](C)C)cc-3sc2c1 [Methylene blue, methylene blue]",icariin induced relaxation of CC smooth muscle strips after pre-treatment with the named inhibitor,[1]; icariin 10^−4M,13.45 ± 1.12%
same,icariin induced relaxation of CC smooth muscle strips after pre-treatment with the named inhibitor,[1]; icariin 10^−5M,2.02 ± 0.45%
same,icariin induced relaxation of CC smooth muscle strips after pre-treatment with the named inhibitor,[1]; icariin 10^−6M,0.52 ± 0.68%
same,effect of pre-treatment on the relaxation effects of icariin,[1],significantly inhibited
"O=c1onc2cnc3ccccc3n12 [ODQ, 1H-[1,2,4]oxadiazolo[4,3,-a]quinoxalin-1-one]",icariin induced relaxation of CC smooth muscle strips after pre-treatment with the named inhibitor,[1]; icariin 10^−4M,10.45 ± 1.08%
same,icariin induced relaxation of CC smooth muscle strips after pre-treatment with the named inhibitor,[1]; icariin 10^−5M,1.85 ± 0.35%
same,icariin induced relaxation of CC smooth muscle strips after pre-treatment with the named inhibitor,[1]; icariin 10^−6M,0.42 ± 0.48%
same,effect of pre-treatment on the relaxation effects of icariin,[1],significantly inhibited
same,Inhibiting Effect on Icariin induced Relaxation of CC. (ICP changes),[2]; ODQ 10^−4M,80.24 ± 8.05%
same,Inhibiting Effect on Icariin induced Relaxation of CC. (ICP changes),[2]; ODQ 10^−5M,58.45 ± 6.00%
same,Inhibiting Effect on Icariin induced Relaxation of CC. (ICP changes),[2]; ODQ 10^−6M,23.09 ± 4.29%
same,Inhibiting Effect on Icariin induced Relaxation of CC. (ICP changes),[2]; ODQ 10^−7M,17.16 ± 1.77%
"COc1ccc(Cc2nccc3cc(OC)c(OC)cc23)cc1OC [Papaverine, papaverine]",cGMP concentration changes,[3]; 10^−3M,11.43 ± 65 fmol/mg/min
same,cGMP concentration changes,[3]; 10^−4M,9.82 ± 2.16 fmol/mg/min
same,cGMP concentration changes,[3]; 10^−5M,8.92 ± 1.87 fmol/mg/min
same,cGMP concentration changes,[3]; 10^−6M,8.66 ± 2.07 fmol/mg/min
"Oc1cccc(O)c1O [Pyrogallol, pyrogallol]",icariin induced relaxation of CC smooth muscle strips after pre-treatment with the named inhibitor,[1]; icariin 10^−4M,15.68 ± 1.15%
same,icariin induced relaxation of CC smooth muscle strips after pre-treatment with the named inhibitor,[1]; icariin 10^−5M,3.45 ± 0.73%
same,icariin induced relaxation of CC smooth muscle strips after pre-treatment with the named inhibitor,[1]; icariin 10^−6M,0.85 ± 0.45%
same,effect of pre-treatment on the relaxation effects of icariin,[1],significantly inhibited
"COC(=O)[C@H]1[C@H]2C[C@@H]3c4[nH]c5cc(OC)ccc5c4CCN3C[C@H]2C[C@@H](OC(=O)c2cc(OC)c(OC)c(OC)c2)[C@@H]1OC [Reserpine, reserpine]",Inhibiting effects on ICP,[2]; Reserpine 10^−4M intracavernosal,59.63%
same,Inhibiting effects on ICP,[2]; Reserpine 10^−5M intracavernosal,33.34%
same,Inhibiting effects on ICP,[2]; Reserpine 10^−6M intracavernosal,17.39%
same,Inhibiting effects on ICP,[2]; Reserpine 10^−7M intracavernosal,4.81%
same,"sexual dysfunction associated with the agent, % of patients",[4],30-40%
CCCc1nn(C)c2c(=O)[nH]c(-c3cc(S(=O)(=O)N4CCN(C)CC4)ccc3OCC)nc12 [Sildenafil],IC50,[5],14600 nM
same,cGMP concentration in clitoris CC,[6],significantly increased
same,EC50,"[6]; Oryctolagus cuniculus, stimulated with SNP, read-out: EC50 (cGMP formation, CC of clitoris)",310 nM
same,cGMP concentration changes,[3]; 10^−3M,12.35 ± 2.56 fmol/mg/min
same,cGMP concentration changes,[3]; 10^−4M,11.98 ± 2.39 fmol/mg/min
same,cGMP concentration changes,[3]; 10^−5M,12.69 ± 2.24 fmol/mg/min
same,cGMP concentration changes,[3]; 10^−6M,10.65 ± 2.28 fmol/mg/min
same,EC50,"[3]; Oryctolagus cuniculus, read-out: EC50 (cGMP formation, CC of penis)",310 nM
C[C@](N)(Cc1ccc(O)c(O)c1)C(=O)O [alpha-methyldopa],"sexual dysfunction associated with the agent, % of patients",[4],20-30%
NS(=O)(=O)c1cc2c(cc1C(F)(F)F)NC(Cc1ccccc1)NS2(=O)=O (stereo not drawn) [bendrofluazide],"sexual dysfunction associated with the agent, % of patients",[4],36%
Clc1cccc(Cl)c1NC1=NCCN1 [clodidine],"sexual dysfunction associated with the agent, % of patients",[4],41%
COc1ccc(-c2oc3c(CC=C(C)C)c(OC4OC(CO)C(O)C(O)C4O)cc(O)c3c(=O)c2OC2OC(C)C(O)C(O)C2OC2OC(CO)C(O)C(O)C2O)cc1 (stereo not drawn) [epimedin A],relaxation effects on CC,[1],no significant relaxation effects
COc1ccc(-c2oc3c(CC=C(C)C)c(O[C@@H]4O[C@H](CO)[C@@H](O)[C@H](O)[C@H]4O)cc(O)c3c(=O)c2O[C@@H]2O[C@@H](C)[C@H](O)[C@@H](O)[C@H]2O[C@@H]2OC[C@@H](O)[C@H](O)[C@H]2O)cc1 [epimedin B],relaxation effects on CC,[1],no significant relaxation effects
COc1ccc(-c2oc3c(CC=C(C)C)c(O[C@@H]4O[C@H](CO)[C@@H](O)[C@H](O)[C@H]4O)cc(O)c3c(=O)c2O[C@@H]2O[C@@H](C)[C@H](O)[C@@H](O)[C@H]2O[C@@H]2O[C@@H](C)[C@H](O)[C@@H](O)[C@H]2O)cc1 [epimedin C],relaxation effects on CC,[1],no significant relaxation effects
COc1ccc2c(c1O)-c1c(O)c(OC)cc3c1[C@H](C2)[N+](C)(C)CC3 [magnoflorine],relaxation effects on CC,[1],no significant relaxation effects
O=c1c(O)c(-c2ccc(O)c(O)c2)oc2cc(O)cc(O)c12 [querectin],relaxation effects on CC,[1],no significant relaxation effects
